Legend:
Conditions in all cases: 1 µM; inhibitor
[1] = target: PKMzeta (Homo sapiens, UniProt Q05513)
[2] = target: PBK (Homo sapiens, UniProt Q96KB5)
[3] = target: MAP3K11 (Homo sapiens, UniProt Q16584)
[4] = target: ALK (Homo sapiens, UniProt Q9UM73)
[5] = target: MAP3K1 (Homo sapiens, UniProt Q13233)
[6] = target: NDR1 (Homo sapiens, UniProt Q15208)
[7] = target: RPS6KA1 (Homo sapiens, UniProt Q15418)
[8] = target: ACK1 (Homo sapiens, UniProt Q07912)
[9] = target: CDK4/CycD2 (Homo sapiens, UniProt P11802)
[10] = target: MEKK3 (Homo sapiens, UniProt Q99759)
[11] = target: MARK3 (Homo sapiens, UniProt P27448)
[12] = target: JNK3 (Homo sapiens, UniProt P53779)
[13] = target: BTK (Homo sapiens, UniProt Q06187)
[14] = target: DCAMKL2 (Homo sapiens, UniProt Q8N568)
[15] = target: PASK (Homo sapiens, UniProt Q96RG2)
[16] = target: TRKC (Homo sapiens, UniProt Q16288)
[17] = target: CK1g1 (Homo sapiens, UniProt Q9HCP0)
[18] = target: p38a (Homo sapiens, UniProt Q16539)
[19] = target: ROCK2 (Homo sapiens, UniProt O75116)
[20] = target: PHKG2 (Homo sapiens, UniProt P15735)
[21] = target: ACVR1 (Homo sapiens, UniProt Q04771)
[22] = target: LRRK2 (Homo sapiens, UniProt Q5S007)
[23] = target: SYK (Homo sapiens, UniProt P43405)
[24] = target: SIK3 (Homo sapiens, UniProt Q9Y2K2)
[25] = target: CDK5 (Homo sapiens, UniProt Q00535)
[26] = target: EPHB2 (Homo sapiens, UniProt P29323)
[27] = target: MKK7 (Homo sapiens, UniProt O14733)
[28] = target: EPHA6 (Homo sapiens, UniProt Q9UF33)
[29] = target: EPHA8 (Homo sapiens, UniProt P29322)
[30] = target: TAOK3 (Homo sapiens, UniProt Q9H2K8)
[31] = target: PKA (Homo sapiens, UniProt P17612)

Sequence of NDR1 (Q15208 whole entry): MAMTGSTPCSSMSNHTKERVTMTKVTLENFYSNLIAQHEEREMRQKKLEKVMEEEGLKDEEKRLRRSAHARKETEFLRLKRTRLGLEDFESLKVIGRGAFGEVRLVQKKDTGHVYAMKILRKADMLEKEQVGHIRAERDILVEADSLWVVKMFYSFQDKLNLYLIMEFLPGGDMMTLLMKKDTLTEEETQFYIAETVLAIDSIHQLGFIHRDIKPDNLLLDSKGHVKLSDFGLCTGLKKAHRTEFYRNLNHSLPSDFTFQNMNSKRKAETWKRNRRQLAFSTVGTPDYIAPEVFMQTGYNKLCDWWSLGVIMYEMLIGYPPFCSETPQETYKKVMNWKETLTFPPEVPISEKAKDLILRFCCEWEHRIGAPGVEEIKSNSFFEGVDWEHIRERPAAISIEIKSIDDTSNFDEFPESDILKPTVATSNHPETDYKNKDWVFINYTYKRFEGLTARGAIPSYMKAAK
Sequence of PASK (Q96RG2 whole entry): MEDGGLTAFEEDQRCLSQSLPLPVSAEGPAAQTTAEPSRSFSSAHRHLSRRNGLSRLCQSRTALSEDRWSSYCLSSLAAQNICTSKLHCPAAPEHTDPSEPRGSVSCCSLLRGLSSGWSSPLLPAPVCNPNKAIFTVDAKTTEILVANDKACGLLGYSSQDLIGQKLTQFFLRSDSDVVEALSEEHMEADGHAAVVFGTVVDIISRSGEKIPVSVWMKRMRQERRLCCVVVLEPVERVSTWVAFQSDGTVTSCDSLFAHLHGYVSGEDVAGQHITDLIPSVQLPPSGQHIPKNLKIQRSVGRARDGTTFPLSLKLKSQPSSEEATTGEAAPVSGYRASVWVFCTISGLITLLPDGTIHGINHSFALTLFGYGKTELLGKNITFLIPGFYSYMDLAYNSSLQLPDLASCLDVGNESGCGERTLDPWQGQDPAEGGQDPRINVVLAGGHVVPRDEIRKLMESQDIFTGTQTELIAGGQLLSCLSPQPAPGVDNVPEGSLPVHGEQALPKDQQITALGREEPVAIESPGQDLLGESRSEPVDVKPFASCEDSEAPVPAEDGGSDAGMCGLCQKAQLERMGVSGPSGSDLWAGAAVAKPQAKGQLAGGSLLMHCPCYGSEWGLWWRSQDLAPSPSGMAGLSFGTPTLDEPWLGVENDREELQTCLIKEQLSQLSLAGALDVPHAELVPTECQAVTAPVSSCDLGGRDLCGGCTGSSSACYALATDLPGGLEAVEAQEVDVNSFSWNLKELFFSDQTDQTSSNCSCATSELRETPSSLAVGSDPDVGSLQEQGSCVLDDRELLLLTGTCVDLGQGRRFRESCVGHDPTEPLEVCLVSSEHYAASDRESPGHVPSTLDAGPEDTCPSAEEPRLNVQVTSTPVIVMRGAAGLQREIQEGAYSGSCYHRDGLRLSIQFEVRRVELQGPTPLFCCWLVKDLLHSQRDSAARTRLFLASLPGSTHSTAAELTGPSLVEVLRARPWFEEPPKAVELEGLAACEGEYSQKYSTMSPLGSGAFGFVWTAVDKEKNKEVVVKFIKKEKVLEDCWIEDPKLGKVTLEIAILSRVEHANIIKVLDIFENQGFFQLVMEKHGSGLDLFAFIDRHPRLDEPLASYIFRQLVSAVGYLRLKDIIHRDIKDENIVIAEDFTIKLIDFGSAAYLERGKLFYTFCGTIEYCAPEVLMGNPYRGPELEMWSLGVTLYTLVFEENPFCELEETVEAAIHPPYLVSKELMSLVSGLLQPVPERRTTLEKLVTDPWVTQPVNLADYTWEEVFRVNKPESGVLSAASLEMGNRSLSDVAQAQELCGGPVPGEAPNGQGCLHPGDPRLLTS
Sequence of TRKC (Q16288 whole entry): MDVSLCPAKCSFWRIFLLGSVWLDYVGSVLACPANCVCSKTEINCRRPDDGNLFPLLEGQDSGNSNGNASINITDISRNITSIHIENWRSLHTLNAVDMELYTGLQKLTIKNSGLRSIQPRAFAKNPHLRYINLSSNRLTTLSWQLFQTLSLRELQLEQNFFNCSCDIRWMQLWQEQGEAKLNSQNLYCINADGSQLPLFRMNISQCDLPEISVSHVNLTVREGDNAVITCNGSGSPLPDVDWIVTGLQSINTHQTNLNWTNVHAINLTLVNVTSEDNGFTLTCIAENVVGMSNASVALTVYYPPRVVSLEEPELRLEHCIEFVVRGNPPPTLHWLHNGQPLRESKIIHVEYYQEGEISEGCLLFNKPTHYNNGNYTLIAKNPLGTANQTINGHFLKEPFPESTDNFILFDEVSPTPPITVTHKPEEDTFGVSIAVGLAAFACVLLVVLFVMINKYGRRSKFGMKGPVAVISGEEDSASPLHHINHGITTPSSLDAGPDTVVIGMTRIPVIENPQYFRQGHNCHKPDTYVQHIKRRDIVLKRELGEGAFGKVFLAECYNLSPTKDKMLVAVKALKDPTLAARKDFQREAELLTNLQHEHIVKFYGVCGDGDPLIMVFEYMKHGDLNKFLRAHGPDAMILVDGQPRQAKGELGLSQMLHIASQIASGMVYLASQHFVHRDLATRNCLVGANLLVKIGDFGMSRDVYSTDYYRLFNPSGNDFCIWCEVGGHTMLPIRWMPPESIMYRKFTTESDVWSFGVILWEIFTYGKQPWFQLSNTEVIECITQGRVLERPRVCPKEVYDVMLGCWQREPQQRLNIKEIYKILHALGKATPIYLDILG
Sequence of PHKG2 (P15735 whole entry): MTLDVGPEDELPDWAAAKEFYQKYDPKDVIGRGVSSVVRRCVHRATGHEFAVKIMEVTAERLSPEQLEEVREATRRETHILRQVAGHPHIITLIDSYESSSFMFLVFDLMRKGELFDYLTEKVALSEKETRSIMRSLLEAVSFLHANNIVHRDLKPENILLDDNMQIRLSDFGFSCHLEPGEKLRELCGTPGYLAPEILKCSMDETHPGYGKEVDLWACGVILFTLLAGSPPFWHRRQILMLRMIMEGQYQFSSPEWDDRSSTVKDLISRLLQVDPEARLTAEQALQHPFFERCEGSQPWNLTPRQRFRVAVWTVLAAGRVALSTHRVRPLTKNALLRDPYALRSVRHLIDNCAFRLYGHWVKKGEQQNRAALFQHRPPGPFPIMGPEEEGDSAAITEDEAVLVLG
Sequence of ACVR1 (Q04771 whole entry): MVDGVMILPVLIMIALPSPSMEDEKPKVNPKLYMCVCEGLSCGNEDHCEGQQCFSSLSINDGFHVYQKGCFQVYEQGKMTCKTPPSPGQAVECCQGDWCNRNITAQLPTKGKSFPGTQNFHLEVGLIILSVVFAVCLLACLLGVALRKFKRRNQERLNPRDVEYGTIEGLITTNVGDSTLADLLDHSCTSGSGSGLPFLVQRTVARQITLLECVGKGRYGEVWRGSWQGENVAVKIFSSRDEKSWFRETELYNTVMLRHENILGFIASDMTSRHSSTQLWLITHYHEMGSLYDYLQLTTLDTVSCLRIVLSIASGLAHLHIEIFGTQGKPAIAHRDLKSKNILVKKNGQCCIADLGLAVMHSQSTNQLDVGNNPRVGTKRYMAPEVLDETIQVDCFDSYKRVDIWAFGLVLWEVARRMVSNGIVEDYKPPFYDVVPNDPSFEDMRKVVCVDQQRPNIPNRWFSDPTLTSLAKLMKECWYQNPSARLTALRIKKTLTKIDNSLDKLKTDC
Sequence of MARK3 (P27448 whole entry): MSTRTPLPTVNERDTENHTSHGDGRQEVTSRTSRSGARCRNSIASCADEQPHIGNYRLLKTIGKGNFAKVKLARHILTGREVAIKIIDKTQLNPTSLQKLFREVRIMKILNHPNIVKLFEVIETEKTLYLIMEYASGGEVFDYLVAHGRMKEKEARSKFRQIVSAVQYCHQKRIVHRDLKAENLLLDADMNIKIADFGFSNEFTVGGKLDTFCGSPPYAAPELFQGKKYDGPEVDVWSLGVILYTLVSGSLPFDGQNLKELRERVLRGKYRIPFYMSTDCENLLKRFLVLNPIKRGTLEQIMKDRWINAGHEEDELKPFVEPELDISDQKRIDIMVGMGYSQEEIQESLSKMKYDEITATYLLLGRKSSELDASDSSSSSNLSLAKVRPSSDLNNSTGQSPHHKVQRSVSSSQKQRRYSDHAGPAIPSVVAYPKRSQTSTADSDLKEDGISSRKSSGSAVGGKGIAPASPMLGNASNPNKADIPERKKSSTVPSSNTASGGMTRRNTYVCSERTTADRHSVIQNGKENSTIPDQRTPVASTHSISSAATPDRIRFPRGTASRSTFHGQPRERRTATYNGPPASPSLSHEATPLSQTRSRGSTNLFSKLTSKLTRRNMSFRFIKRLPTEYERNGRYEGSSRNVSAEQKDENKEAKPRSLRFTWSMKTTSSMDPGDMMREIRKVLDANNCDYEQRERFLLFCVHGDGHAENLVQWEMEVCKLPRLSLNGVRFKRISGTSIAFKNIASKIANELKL
Sequence of MKK7 (O14733 whole entry): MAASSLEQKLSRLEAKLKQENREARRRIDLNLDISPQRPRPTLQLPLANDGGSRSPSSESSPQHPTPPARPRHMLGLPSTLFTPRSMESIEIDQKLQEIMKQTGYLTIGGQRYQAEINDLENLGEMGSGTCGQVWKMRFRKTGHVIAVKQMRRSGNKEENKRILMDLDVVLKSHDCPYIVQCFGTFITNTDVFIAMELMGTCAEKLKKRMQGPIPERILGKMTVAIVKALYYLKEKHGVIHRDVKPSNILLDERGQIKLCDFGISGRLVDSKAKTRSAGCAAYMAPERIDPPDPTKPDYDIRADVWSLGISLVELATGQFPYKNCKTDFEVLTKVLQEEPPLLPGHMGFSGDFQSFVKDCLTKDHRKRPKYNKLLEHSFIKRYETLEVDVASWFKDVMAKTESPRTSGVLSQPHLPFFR
Sequence of PBK (Q96KB5 whole entry): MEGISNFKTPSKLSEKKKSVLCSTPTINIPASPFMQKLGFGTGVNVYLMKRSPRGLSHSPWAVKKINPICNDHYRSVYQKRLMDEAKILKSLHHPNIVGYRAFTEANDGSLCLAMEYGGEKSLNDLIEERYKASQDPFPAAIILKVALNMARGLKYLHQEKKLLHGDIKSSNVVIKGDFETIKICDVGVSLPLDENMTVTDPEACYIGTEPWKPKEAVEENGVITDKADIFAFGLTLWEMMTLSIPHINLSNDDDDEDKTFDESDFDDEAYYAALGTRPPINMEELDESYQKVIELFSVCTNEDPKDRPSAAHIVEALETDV

- 21c Remaining activity, percent of control [%] [1]: 96.2%
- 21c Remaining activity, percent of control [%] [2]: 98.8%
- 21c Remaining activity, percent of control [%] [3]: 45.8%
- 21c Remaining activity, percent of control [%] [4]: 100.1%
- 21c Remaining activity, percent of control [%] [5]: 100.1%
- 21c Remaining activity, percent of control [%] [6]: 86.7%
- 21c Remaining activity, percent of control [%] [7]: 90.5%
- 21c Remaining activity, percent of control [%] [8]: 79.8%
- 21c Remaining activity, percent of control [%] [9]: 106.8%
- 21c Remaining activity, percent of control [%] [10]: 105.8%
- 21c Remaining activity, percent of control [%] [11]: 101.1%
- 21c Remaining activity, percent of control [%] [12]: 84.9%
- 21c Remaining activity, percent of control [%] [13]: 96.6%
- 21c Remaining activity, percent of control [%] [14]: 99.3%
- 21c Remaining activity, percent of control [%] [15]: 100.8%
- 21c Remaining activity, percent of control [%] [16]: 102.0%
- 21c Remaining activity, percent of control [%] [17]: 102.2%
- 21c Remaining activity, percent of control [%] [18]: 92.7%
- 21c Remaining activity, percent of control [%] [19]: 89.7%
- 21c Remaining activity, percent of control [%] [20]: 98.0%
- 21c Remaining activity, percent of control [%] [21]: 81.0%
- 21c Remaining activity, percent of control [%] [22]: 90.3%
- 21c Remaining activity, percent of control [%] [23]: 99.7%
- 21c Remaining activity, percent of control [%] [24]: 72.1%
- 21c Remaining activity, percent of control [%] [25]: 101.3%
- 21c Remaining activity, percent of control [%] [26]: 100.1%
- 21c Remaining activity, percent of control [%] [27]: 100.3%
- 21c Remaining activity, percent of control [%] [28]: 97.4%
- 21c Remaining activity, percent of control [%] [29]: 112.4%
- 21c Remaining activity, percent of control [%] [30]: 102.4%
- 21c Remaining activity, percent of control [%] [31]: 96.3%
Compound: O=C1NCCCCCNc2nc(c3ccccc3n2)Nc2cc1[nH]n2 [21c, (Z)-3^1H-2,5,11-triaza-1(4,2)-quinazolina-3(3,5)-pyrazolacycloundecaphan-4-one]

Source: paper doi:10.1101/2023.10.20.563248v1 (biorxiv, 2023)
